Reference: ChEMBL document CHEMBL1124911, “Inhibition of human leukocyte elastase. 2. Inhibition by substituted cephalosporin esters and amides” (J Med Chem, 1990)

Key:
[1] = target: T1, Neutrophil elastase (Homo sapiens, UniProt P08246); assay: In vitro inhibition of Human Leukocyte Elastase (HLE)
T1 sequence (P08246 whole entry): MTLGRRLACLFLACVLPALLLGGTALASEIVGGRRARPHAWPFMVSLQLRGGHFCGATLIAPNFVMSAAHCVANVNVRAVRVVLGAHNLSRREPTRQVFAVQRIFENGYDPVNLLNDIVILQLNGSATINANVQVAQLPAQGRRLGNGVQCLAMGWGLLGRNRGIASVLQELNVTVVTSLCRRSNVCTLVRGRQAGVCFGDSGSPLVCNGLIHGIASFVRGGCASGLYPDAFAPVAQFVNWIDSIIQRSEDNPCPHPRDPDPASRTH

[2] = target: T2, Neutrophil elastase (Homo sapiens) (UniProt P08246)
T2 sequence (whole entry): T1 sequence (P08246 whole entry)
Description: Second-order rate constant for time-dependent inactivation of leukocyte elastase

[3] = target: T2, Neutrophil elastase (Homo sapiens); remark: listed apart in the source
Description: Second-order rate constant for time-dependent inactivation of Human Leukocyte Elastase was determined; H means an inverse progress curve was observed

[4] = target: T2, Neutrophil elastase (Homo sapiens); remark: listed apart in the source
[5] = target: T2, Neutrophil elastase (Homo sapiens); assay: Second-order rate constant for time-dependent inactivation of Human Leukocyte Elastase was determined; G means no time-dependent inhibition was observed

Row | Compound | IC50 [1] | K obs / 1 [2] | also measured
1 | CO[C@H]1C(=O)N2C(C(=O)NCC(=O)O)=C(COC(C)=O)CS(=O)(=O)[C@H]12 | > 50000 nM |  | 
2 | CO[C@H]1C(=O)N2C(C(=O)NCCC(=O)O)=C(COC(C)=O)CS(=O)(=O)[C@H]12 | > 50000 nM |  | 
3 | CO[C@H]1C(=O)N2C(C(=O)O)=C(COC(C)=O)CS(=O)(=O)[C@H]12 | > 50000 nM |  | 
4 | COc1ccc(COC(=O)C2=C(COC(C)=O)CS(=O)(=O)[C@@H]3[C@@H](OC)C(=O)N23)cc1 | 100 nM |  | K obs / 1 [3]: Inverse progress curve was observed
5 | CO[C@H]1C(=O)N2C(C(=O)N(C)Cc3ccc(C(=O)O)cc3)=C(COC(C)=O)CS(=O)(=O)[C@H]12 | 400 nM | 8600 M⁻¹ s⁻¹ | 
6 | CCCC[C@H](NC(=O)OC(C)(C)C)[C@@H](O)C(=O)O[C@H]1C[C@@]2(O)[C@@H](OC(=O)c3ccccc3)[C@@H]3[C@]4(OC(C)=O)CO[C@@H]4C[C@H](O)[C@@]3(C)[C@@H](O)[C@H](OC(C)=O)C(=C1C)C2(C)C |  | 900 M⁻¹ s⁻¹ | 
7 | CO[C@H]1C(=O)N2C(C(=O)N3CCOCC3)=C(COC(C)=O)CS(=O)(=O)[C@H]12 |  | 35000 M⁻¹ s⁻¹ | 
8 | CO[C@H]1C(=O)N2C(C(=O)OCc3ccc(C(C)(C)C)cc3)=C(COC(C)=O)CS(=O)(=O)[C@H]12 | 200 nM |  | K obs / 1 [3]: Inverse progress curve was observed
9 | CO[C@H]1C(=O)N2C(C(=O)OC(C)(C)C)=C(COC(C)=O)CS(=O)(=O)[C@H]12 |  |  | K obs / 1 [4]: 16000 M⁻¹ s⁻¹
10 | CO[C@H]1C(=O)N2C(C(=O)OCc3ccccc3)=C(COC(C)=O)CS(=O)(=O)[C@H]12 | 70 nM |  | K obs / 1 [5]: No time-dependent inhibition was observed
11 | CO[C@H]1C(=O)N2C(C(=O)NC(C)(C)C)=C(COC(C)=O)CS(=O)(=O)[C@H]12 | 800 nM | 2200 M⁻¹ s⁻¹ | 
12 | CO[C@H]1C(=O)N2C(C(=O)OCc3ccc(C(=O)OC(C)(C)C)cc3)=C(COC(C)=O)CS(=O)(=O)[C@H]12 | 400 nM |  | K obs / 1 [5]: No time-dependent inhibition was observed
13 | CCOC(=O)COC(=O)C1=C(COC(C)=O)CS(=O)(=O)[C@@H]2[C@@H](OC)C(=O)N12 | 100 nM |  | 
14 | CO[C@H]1C(=O)N2C(C(=O)N3CCCC3)=C(COC(C)=O)CS(=O)(=O)[C@H]12 |  | 27000 M⁻¹ s⁻¹ | 

More lines, main results first:

Row | IC50 [1] | K obs / 1 [2] | Compound | also measured
15 |  | 500 M⁻¹ s⁻¹ | CO[C@H]1C(=O)N2C(C(=O)N(C)CCC(=O)O)=C(COC(C)=O)CS(=O)(=O)[C@H]12 | 
16 | 200 nM |  | CO[C@H]1C(=O)N2C(C(=O)N(C)CC(=O)OC(C)(C)C)=C(COC(C)=O)CS(=O)(=O)[C@H]12 | 
17 |  | 6200 M⁻¹ s⁻¹ | COC(=O)CCN(C)C(=O)C1=C(COC(C)=O)CS(=O)(=O)[C@@H]2[C@@H](OC)C(=O)N12 | 
18 | 2000 nM | 3900 M⁻¹ s⁻¹ | CO[C@H]1C(=O)N2C(C(=O)N(C)C)=C(COC(C)=O)CS(=O)(=O)[C@H]12 | 
19 |  | 9500 M⁻¹ s⁻¹ | COC(=O)CN(C)C(=O)C1=C(COC(C)=O)CS(=O)(=O)[C@@H]2[C@@H](OC)C(=O)N12 | 
20 | 200 nM |  | COC(=O)C1=C(COC(C)=O)CS(=O)(=O)[C@@H]2[C@@H](OC)C(=O)N12 | K obs / 1 [4]: 17000 M⁻¹ s⁻¹
21 | 5000 nM | 300 M⁻¹ s⁻¹ | CO[C@H]1C(=O)N2C(C(=O)N(C)CC(=O)O)=C(COC(C)=O)CS(=O)(=O)[C@H]12 | 
